Source: paper PMC11406233 (Proceedings of the National Academy of Sciences of the …, 2024)
Read-outs that look alike come from different tables or passages of the source.

What was measured:
SCoV2^WK521A191T [1] = system: SCoV2^WK521A191T; set-up: species or system SARS-CoV-2; conditions: read-out: EC50 from cell-based assay
SCoV2^WK521A191T [2] = system: SCoV2^WK521A191T; set-up: species or system SARS-CoV-2; conditions: read-out: EC50 from cell-based assay; remark: listed apart in the source
rgSCoV2WT = test: microbe, parasite or virus in culture; type: cell-based; conditions: Severe acute respiratory syndrome coronavirus 2, VeroE6/TMPRSS2, read-out: EC50±SD
rgSCoV2E166V = type: cell-based, SARS-CoV-2
rgSCoV2L50F/E166V = type: cell-based, SARS-CoV-2
[3] = system: SCoV2^WK521WT + SCoV2^WK521A191T; type: cell-based, SARS-CoV-2
SCoV2^WK521E166V = type: cell-based, SARS-CoV-2
M^proE166V [4] = biological target: T1, M^proE166V (Severe acute respiratory syndrome coronavirus 2, UniProt P0DTD1, E3429V); type: biochemical, SARS-CoV-2
M^proE166V [5] = biological target: T1, M^proE166V; type: binding, SARS-CoV-2
[6] = system: SCoV2^WK521WT + SCoV2^WK521E166V; type: cell-based, SARS-CoV-2

| SMILES | EC50 (SCoV2^WK521A191T [1]) | EC50 (SCoV2^WK521A191T [2]) | EC50 (rgSCoV2WT) | EC50 (rgSCoV2E166V) | EC50 (rgSCoV2L50F/E166V) | Pattern of replicability in CSRA [3] | Difference in the EC50 values of NIR and TKB245 (SCoV2^WK521E166V) | Factor of greater binding affinity to MproE166V than nirmatrelvir (M^proE166V [4]) | Complex formation with MproE166V in crystallization (M^proE166V [5]) | SCoV2^WK521E166V population [6] | SCoV2^WK521WT population [6] |
| --- | --- | --- | --- | --- | --- | --- | --- | --- | --- | --- | --- |
| COc1cccc2[nH]c(C(=O)N[C@@H](CC(C)C)C(=O)N[C@@H](C[C@@H]3CCNC3=O)C(=O)c3nc4ccccc4s3)cc12 [5h] | > 100 µM | 35 ± 0.08 µM | 13.5 µM | 13.5 ± 0.15 µM | 13.4 ± 0.48 µM | SCoV2^WK521A191T predominated SCoV2^WK521 throughout all the concentrations tested |  |  |  |  |  |
| CC(C)(C)[C@H](NC(=O)C(F)(F)F)C(=O)N1C[C@H]2[C@@H]([C@H]1C(=O)N[C@@H](C[C@@H]1CCNC1=O)C(=O)c1nc3c(F)cccc3s1)C2(C)C [TKB245] |  |  | 0.78 µM | 6.6 µM | 11.4 µM |  | 207 fold | 6.8 | TKB245 binds to M^proE166V | 100% | 100% |
| CC(C)(C)[C@H](NC(=O)C(F)(F)F)C(=O)N1C[C@H]2[C@@H]([C@H]1C(=O)N[C@H](C#N)C[C@@H]1CCNC1=O)C2(C)C [nirmatrelvir, reference compound] |  |  | 4.4 µM |  |  |  |  |  |  |  |  |
